Tests used:
HDAC6 [1] = target: T1, HDAC6 (Homo sapiens, UniProt Q9UBN7); experiment: HDAC6 enzyme inhibition assay (fluorimetric); format: biochemical; conditions: 1 μM compound; 3 h pre-incubation; recombinant full length HDAC6; read-out: HDAC6 % inh @ 1 μM
T1 sequence (Q9UBN7 1-1215): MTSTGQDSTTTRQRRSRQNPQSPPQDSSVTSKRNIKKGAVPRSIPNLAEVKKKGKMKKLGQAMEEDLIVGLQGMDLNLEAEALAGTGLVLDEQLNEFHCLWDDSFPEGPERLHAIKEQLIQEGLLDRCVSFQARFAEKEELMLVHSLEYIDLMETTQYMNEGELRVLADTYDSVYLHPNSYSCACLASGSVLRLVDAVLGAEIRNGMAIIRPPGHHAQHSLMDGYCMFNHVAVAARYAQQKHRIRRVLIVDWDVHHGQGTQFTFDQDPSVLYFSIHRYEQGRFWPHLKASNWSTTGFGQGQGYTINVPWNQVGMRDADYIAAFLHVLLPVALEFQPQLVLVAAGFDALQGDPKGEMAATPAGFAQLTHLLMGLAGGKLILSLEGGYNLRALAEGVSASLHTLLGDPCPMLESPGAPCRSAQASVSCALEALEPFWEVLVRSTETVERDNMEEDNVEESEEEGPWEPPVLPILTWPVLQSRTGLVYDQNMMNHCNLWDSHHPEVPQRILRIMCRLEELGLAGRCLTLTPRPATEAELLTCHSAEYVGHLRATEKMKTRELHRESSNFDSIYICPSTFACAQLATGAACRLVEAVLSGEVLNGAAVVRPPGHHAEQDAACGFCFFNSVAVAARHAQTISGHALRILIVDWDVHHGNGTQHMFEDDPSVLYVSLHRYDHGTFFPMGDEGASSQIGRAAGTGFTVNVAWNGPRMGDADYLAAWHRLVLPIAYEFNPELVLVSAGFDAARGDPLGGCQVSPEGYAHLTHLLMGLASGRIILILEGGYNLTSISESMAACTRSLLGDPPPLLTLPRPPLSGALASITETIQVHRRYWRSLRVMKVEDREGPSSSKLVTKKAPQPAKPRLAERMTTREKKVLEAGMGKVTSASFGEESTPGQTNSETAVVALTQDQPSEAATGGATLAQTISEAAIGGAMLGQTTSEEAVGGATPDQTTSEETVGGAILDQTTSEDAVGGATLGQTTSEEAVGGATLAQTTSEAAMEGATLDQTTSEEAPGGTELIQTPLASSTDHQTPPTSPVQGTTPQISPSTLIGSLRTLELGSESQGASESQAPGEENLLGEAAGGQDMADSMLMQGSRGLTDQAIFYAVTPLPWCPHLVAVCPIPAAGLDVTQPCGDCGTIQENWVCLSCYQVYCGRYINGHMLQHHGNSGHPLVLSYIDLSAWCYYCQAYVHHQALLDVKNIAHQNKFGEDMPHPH
Protocol: (§1) HDAC6 and HDAC2 Enzyme Inhibition Assay
(§2) A fluorimetric assay was used for testing the activity of compounds of the invention against HDAC6 and HDAC2.
(§3) The compounds were dissolved in DMSO. Serial dilutions were prepared in DMSO and then diluted 1:10 in HDAC assay buffer (Tris-buffered solution, BPS Bioscience Inc. #50031). 5 μl of the compound dilution was added to a 50 μl reaction so that the final concentration of DMSO was 1%.
(§4) The compounds were pre-incubated in duplicate at RT for 3 hours in a mixture containing HDAC assay buffer, 5 μg BSA and recombinant HDAC enzyme (see table above). The enzymatic reactions were initiated by the addition of a fluorogenic, acetylated peptide substrate based on a histone protein (BPS Bioscience Inc. #50037) to a final concentration of 10 μM. The enzymatic reaction proceeded for 30 minutes at 37° C. Then, 50 μl of 2× HDAC Developer, which contains peptidase activity and Trichostatin A (BPS Bioscience Inc. #50030) was added and the plate was incubated at RT for an additional 15 minutes. Fluorescence intensity was measured at an excitation of 360 nm and an emission of 460 nm using a Tecan Infinite M1000 microplate reader.
(§5) Trichostatin A (TSA, Selleckchem #S1045) was used as reference inhibitor.
(§6) The fluorescent intensity data were analyzed using the computer software Graphpad Prism (GraphPad Software, San Diego, CA). 100% activity was defined as the fluorescent intensity (Ft) in the absence of the compound. 0% activity was defined as the fluorescent intensity (Fb) in the absence of the enzyme. The percent activity in the presence of each compound was calculated according to the following equation: % activity=(F−Fb)/(Ft−Fb), where F=the fluorescent intensity in the presence of the compound.

HDAC2 = target: T2, HDAC2 (Homo sapiens, UniProt Q92769); experiment: HDAC2 enzyme inhibition assay (fluorimetric); format: biochemical; conditions: 1 μM compound; 3 h pre-incubation; recombinant full length HDAC2; read-out: HDAC2 % inh @ 1 μM
T2 construct: (full length with C-terminal His-tag); His (C); purchased BPS Bioscience Inc. 50002
T2 sequence (Q92769 whole entry): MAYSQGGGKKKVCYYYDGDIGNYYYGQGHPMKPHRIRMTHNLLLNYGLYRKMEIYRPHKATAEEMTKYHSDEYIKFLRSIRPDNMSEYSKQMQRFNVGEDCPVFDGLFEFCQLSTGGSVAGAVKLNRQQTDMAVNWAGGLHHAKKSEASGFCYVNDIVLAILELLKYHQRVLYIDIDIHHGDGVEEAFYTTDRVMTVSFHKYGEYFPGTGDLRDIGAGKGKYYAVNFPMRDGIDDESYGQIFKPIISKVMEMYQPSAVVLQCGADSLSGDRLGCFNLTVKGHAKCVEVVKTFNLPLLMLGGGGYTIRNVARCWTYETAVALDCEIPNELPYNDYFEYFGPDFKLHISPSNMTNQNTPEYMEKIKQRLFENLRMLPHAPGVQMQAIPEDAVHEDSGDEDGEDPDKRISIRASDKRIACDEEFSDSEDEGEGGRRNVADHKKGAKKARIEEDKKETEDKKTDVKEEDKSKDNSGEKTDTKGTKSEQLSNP
Protocol: as §1, §2, §3, §4, §5, §6

HDAC6 [2] = target: T1, HDAC6; experiment: In vitro cell-based assay: acetylation levels of Alpha-Tubulin by Western Blot in MOLP8 cells; design: endogenous in cells; host or cells: MOLP8; conditions: 18 h, acetyl-alpha-tubulin relative band intensity, ACY-1215 1 μM = 100%
Method in brief: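 MOLP8 cells treated with compounds at 5 and 1 μM for 18 h at 37° C.; acetyl-alpha-tubulin measured by Western blot of RIPA extracts (7 μg protein). Bands normalized to total protein or beta-actin, expressed relative to ACY-1215 1 μM (100%), then classed.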

FC(F)(F)c1nc(-c2ccnc(-c3cc4c(ccn4Cc4ccncc4)cn3)c2)no1 [Example 1al, 3-(2-(1-(Pyridin-4-ylmethyl)-1H-pyrrolo[3,2-c]pyridin-6-yl)pyridin-4-yl)-5-(trifluoromethyl)-1,2,4-oxadiazole]
inhibition at 1 µM (HDAC6 [1]): 92% | inhibition at 1 µM (HDAC2): 31% | Cellular activity @1 uM (HDAC6 [2]): ++ (150-300) | Cellular activity @5 uM (HDAC6 [2]): ++ (150-300)

Cn1cc(-c2cn[nH]c2)c2cc(-c3cc(-c4noc(C(F)(F)F)n4)ccn3)ncc21 [Example 1ap, 3-(2-(1-Methyl-3-(1H-pyrazol-4-yl)-1H-pyrrolo[2,3-c]pyridin-5-yl)pyridin-4-yl)-5-(trifluoromethyl)-1,2,4-oxadiazole]
inhibition at 1 µM (HDAC6 [1]): 86% | inhibition at 1 µM (HDAC2): 6% | Cellular activity @1 uM (HDAC6 [2]): + (50-150) | Cellular activity @5 uM (HDAC6 [2]): ++ (150-300)

CCCCn1cc(C2=CCN(C)CC2)c2cc(-c3cc(-c4noc(C(F)(F)F)n4)ccn3)ncc21 [Example 1aq, 3-(2-(1-Butyl-3-(1-methyl-1,2,3,6-tetrahydropyridin-4-yl)-1H-pyrrolo[2,3-c]pyridin-5-yl)pyridin-4-yl)-5-(trifluoromethyl)-1,2,4-oxadiazole]
inhibition at 1 µM (HDAC6 [1]): 89% | inhibition at 1 µM (HDAC2): 2% | Cellular activity @1 uM (HDAC6 [2]): ++ (150-300) | Cellular activity @5 uM (HDAC6 [2]): ++ (150-300)

COCCn1ccc2cnc(-c3cc(-c4noc(C(F)(F)F)n4)ccn3)cc21 [Example 1au, 3-(2-(1-(2-Methoxyethyl)-1H-pyrrolo[3,2-c]pyridin-6-yl)pyridin-4-yl)-5-(trifluoromethyl)-1,2,4-oxadiazole]
inhibition at 1 µM (HDAC6 [1]): 85% | inhibition at 1 µM (HDAC2): 19% | Cellular activity @1 uM (HDAC6 [2]): + (50-150) | Cellular activity @5 uM (HDAC6 [2]): ++ (150-300)

FC(F)(F)c1nc(-c2ccnc(-c3cc4c(ccn4Cc4ccccn4)cn3)c2)no1 [Example 1aw, 3-(2-(1-(Pyridin-2-ylmethyl)-1H-pyrrolo[3,2-c]pyridin-6-yl)pyridin-4-yl)-5-(trifluoromethyl)-1,2,4-oxadiazole]
inhibition at 1 µM (HDAC6 [1]): 81% | inhibition at 1 µM (HDAC2): 15% | Cellular activity @1 uM (HDAC6 [2]): + (50-150) | Cellular activity @5 uM (HDAC6 [2]): ++ (150-300)

CCN(CC)CCCOc1ccc(-c2cc(-c3noc(C(F)(F)F)n3)ccn2)nc1 [Example 1c, N,N-Diethyl-3-((4′-(5-(trifluoromethyl)-1,2,4-oxadiazol-3-yl)-[2,2′-bipyridin]-5-yl)oxy)propan-1-amine]
inhibition at 1 µM (HDAC6 [1]): 89% | inhibition at 1 µM (HDAC2): 3% | Cellular activity @1 uM (HDAC6 [2]): + (50-150) | Cellular activity @5 uM (HDAC6 [2]): ++ (150-300)

FC(F)(F)c1nc(-c2ccnc(-c3ccc(OCCCN4CCOCC4)cn3)c2)no1 [Example 1e, 4-(3-((4′-(5-(Trifluoromethyl)-1,2,4-oxadiazol-3-yl)-[2,2′-bipyridin]-5-yl)oxy)propyl)morpholine]
inhibition at 1 µM (HDAC6 [1]): 84% | inhibition at 1 µM (HDAC2): 9% | Cellular activity @1 uM (HDAC6 [2]): + (50-150) | Cellular activity @5 uM (HDAC6 [2]): ++ (150-300)

FC1(F)CCN(CCCOc2ccc(-c3cc(-c4noc(C(F)(F)F)n4)ccn3)nc2)CC1 [Example 1f, 3-(5′-(3-(4,4-Difluoropiperidin-1-yl)propoxy)-[2,2′-bipyridin]-4-yl)-5-(trifluoromethyl)-1,2,4-oxadiazole]
inhibition at 1 µM (HDAC6 [1]): 71% | inhibition at 1 µM (HDAC2): 16% | Cellular activity @1 uM (HDAC6 [2]): − (<50) | Cellular activity @5 uM (HDAC6 [2]): ++ (150-300)

CCCn1cc(CN2CCCCC2)c2cc(-c3cc(-c4noc(C(F)(F)F)n4)ccn3)ncc21 [Example 1g, 3-(2-(3-(Piperidin-1-ylmethyl)-1-propyl-1H-pyrrolo[2,3-c]pyridin-5-yl)pyridin-4-yl)-5-(trifluoromethyl)-1,2,4-oxadiazole]
inhibition at 1 µM (HDAC6 [1]): 96% | inhibition at 1 µM (HDAC2): 38% | Cellular activity @1 uM (HDAC6 [2]): + (50-150) | Cellular activity @5 uM (HDAC6 [2]): +++ (>300)

CN(CC1CC1)c1ccc(-c2cc(-c3noc(C(F)(F)F)n3)ccn2)nc1 [Example 1j, N-(Cyclopropylmethyl)-N-methyl-4′-(5-(trifluoromethyl)-1,2,4-oxadiazol-3-yl)-[2,2′-bipyridin]-5-amine]
inhibition at 1 µM (HDAC6 [1]): 69% | inhibition at 1 µM (HDAC2): 10% | Cellular activity @1 uM (HDAC6 [2]): − (<50) | Cellular activity @5 uM (HDAC6 [2]): ++ (150-300)

CCN(CC)CCCNc1ccc(-c2cc(-c3noc(C(F)(F)F)n3)ccn2)nc1 [Example 1k, N^1,N^1-Diethyl-N^3-(4′-(5-(trifluoromethyl)-1,2,4-oxadiazol-3-yl)-[2,2′-bipyridin]-5-yl)propane-1,3-diamine]
inhibition at 1 µM (HDAC6 [1]): 95% | inhibition at 1 µM (HDAC2): 27% | Cellular activity @1 uM (HDAC6 [2]): + (50-150) | Cellular activity @5 uM (HDAC6 [2]): + (50-150)

FC(F)(F)c1nc(-c2ccnc(-c3cc4c(ccn4C4CCOCC4)cn3)c2)no1 [Example 1o, 3-(2-(1-(Tetrahydro-2H-pyran-4-yl)-1H-pyrrolo[3,2-c]pyridin-6-yl)pyridin-4-yl)-5-(trifluoromethyl)-1,2,4-oxadiazole]
inhibition at 1 µM (HDAC6 [1]): 97% | inhibition at 1 µM (HDAC2): 23% | Cellular activity @1 uM (HDAC6 [2]): ++ (150-300) | Cellular activity @5 uM (HDAC6 [2]): +++ (>300)

O=C(Cc1ccccc1)Nc1ccc(-c2cc(-c3noc(C(F)(F)F)n3)ccn2)nc1 [Example 1q, 2-Phenyl-N-(4′-(5-(trifluoromethyl)-1,2,4-oxadiazol-3-yl)-[2,2′-bipyridin]-5-yl)acetamide]
inhibition at 1 µM (HDAC6 [1]): 73% | inhibition at 1 µM (HDAC2): 11% | Cellular activity @1 uM (HDAC6 [2]): + (50-150) | Cellular activity @5 uM (HDAC6 [2]): ++ (150-300)

CN(C)C(=O)c1cc2cc(-c3cc(-c4noc(C(F)(F)F)n4)ccn3)ncc2n1C [Example 1u, N,N,1-Trimethyl-5-(4-(5-(trifluoromethyl)-1,2,4-oxadiazol-3-yl)pyridin-2-yl)-1H-pyrrolo[2,3-c]pyridine-2-carboxamide]
inhibition at 1 µM (HDAC6 [1]): 98% | inhibition at 1 µM (HDAC2): 19% | Cellular activity @1 uM (HDAC6 [2]): +++ (>300) | Cellular activity @5 uM (HDAC6 [2]): +++ (>300)

CCCn1cc(-c2cn[nH]c2)c2cc(-c3cc(-c4noc(C(F)(F)F)n4)ccn3)ncc21 [Example 1v, 3-(2-(1-Propyl-3-(1H-pyrazol-4-yl)-1H-pyrrolo[2,3-c]pyridin-5-yl)pyridin-4-yl)-5-(trifluoromethyl)-1,2,4-oxadiazole]
inhibition at 1 µM (HDAC6 [1]): 66% | inhibition at 1 µM (HDAC2): 3% | Cellular activity @1 uM (HDAC6 [2]): + (50-150) | Cellular activity @5 uM (HDAC6 [2]): +++ (>300)

Source: patent US12668591B2, “1,2,4-oxadiazole derivatives as histone deacetylase 6 inhibitors” (Oryzon Genomics, S.A., priority 2017, dated 2026)
